Data on four compounds can be found in publication PMC7921093, “Human METTL7B is an alkyl thiol methyltransferase that metabolizes hydrogen sulfide and captopril” (Scientific Reports, 2021).

What all share (type): biochemical
Experiment [1] addresses T1, METTL7B (methyltransferase-like protein 7B) (Homo sapiens, UniProt Q6UX53).
T1 construct: gene TMT1B; His-GST-METTL7B, N-terminal His-GST tag with (AP)5 linker
T1 sequence (Q6UX53 1-244): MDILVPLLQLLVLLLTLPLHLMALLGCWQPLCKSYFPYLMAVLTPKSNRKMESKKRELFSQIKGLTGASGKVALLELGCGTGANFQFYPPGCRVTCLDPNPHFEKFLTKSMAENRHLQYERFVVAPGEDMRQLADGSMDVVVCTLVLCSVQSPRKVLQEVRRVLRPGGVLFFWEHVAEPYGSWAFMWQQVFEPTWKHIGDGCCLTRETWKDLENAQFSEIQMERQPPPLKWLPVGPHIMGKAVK
Kind of experiment: MTaseGlo substrate screen (AdoHcy formation) with purified enzyme. From the text: MTaseGlo substrate screen (AdoHcy formation) with purified enzyme on METTL7B (methyltransferase-like protein 7B) | D-Penicillamine|++

Experiment [2] has as its target T1, METTL7B (methyltransferase-like protein 7B). The experiment is described as follows: Michaelis-Menten kinetics of S-methyl captopril formation, LC-MS/MS.
Experiment [3] has the same target. The experiment is described as follows: S-methyl captopril formation by purified enzyme, LC-MS/MS; D98A inactive.
Experiment [4] shares this target. The experiment is described as follows: methylsulfide formation, LC-MS/MS after monobromobimane derivatization, saturable kinetics.

For `CC(C)(S)[C@@H](N)C(=O)O` [D-penicillamine], the “MTaseGlo substrate screen (AdoHcy formation) with purified enzyme” value in experiment [1] was “D-Penicillamine|++”. `C[S+](CC[C@H](N)C(=O)[O-])C[C@H]1O[C@@H](n2cnc3c(N)ncnc32)[C@H](O)[C@@H]1O` (stereo partly drawn) [S-adenosyl-L-methionine]: in experiment [2], the “Michaelis-Menten kinetics of S-methyl captopril formation, LC-MS/MS” value was “the AdoMet activity curve was saturable and exhibited classic Michaelis–Menten kinetics”. As to `C[C@H](CS)C(=O)N1CCC[C@H]1C(=O)O` [captopril], in experiment [3], the “S-methyl captopril formation by purified enzyme, LC-MS/MS; D98A inactive” value is on record as “concentration-dependent formation of S-methyl captopril was observed upon incubation with purified wild-type His-GST-METTL7B”. As to `S` [hydrogen sulfide], the “methylsulfide formation, LC-MS/MS after monobromobimane derivatization, saturabl” value in experiment [4] is listed as “Peak area ratio (PAR) versus concentration curve for hydrogen sulfide methylation as measured by formation of methylsulfide”.
